This assay concerns SMN2 minigene mRNA (SMN2-A minigene) in HEK293H cells. Briefly: SMN2 minigene mRNA splicing RT-qPCR assay in cultured cells. Type of assay: cell-based, human. Conditions: for SMN2 minigene FL mRNA: HEK293H cells with SMN2 minigene, rising concentrations, 24 hr, relative to vehicle (FIG. 3); for EC (1.5-fold increase): Homo sapiens, HEK293-H, concentration increasing full length SMN2 mRNA 1.5-fold relative to vehicle-treated cells, HEK293H cells with SMN2-A minigene, 24 hours, 7-point concentration data, read-out: EC1.5x for production of full length SMN2 mRNA; for exon 7 inclusion: SMN2 minigene, relative to untreated cells (FIG. 3). The method in brief: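 HEK293H cells stably carrying the SMN2-A minigene were treated for 24 h at 37 °C with a 7-point, 3.16-fold dilution series of compound. Multiplex RT-qPCR measured exon 7-containing minigene FL mRNA against GAPDH, expressed relative to vehicle by modified ΔΔCt; the EC1.5× is the concentration giving a 1.5-fold increase.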

Data on two molecules can be found in patent publication US11753407B2, “Compounds for treating spinal muscular atrophy” (PTC Therapeutics, Inc., priority 2012, dated 2023).

Molecules are shown by their SMILES.

Turning to `COc1ccc(-c2cc(=O)n3cc(N4CCNCC4)ccc3n2)cc1OC` [Cpd 6, 2-(3,4-dimethoxyphenyl)-7-(piperazin-1-yl)-4H-pyrido[1,2-a]pyrimidin-4-one], the “SMN2 minigene FL mRNA” value is “increased SMN2 minigene FL mRNA at low concentrations”, the EC (1.5-fold increase) was under 0.1 µM and the “exon 7 inclusion” value was “fully restored exon 7 inclusion”.
The like results for `Cc1cn2nc(-c3cc(=O)n4cc(N5CCN(C)CC5)ccc4n3)cc2c(C)n1` [Cpd 170, 2-(4,6-dimethylpyrazolo[1,5-a]pyrazin-2-yl)-7-(4-methylpiperazin-1-yl)-4H-pyrido[1,2-a]pyrimidin-4-one] were, in that order, “increased SMN2 minigene FL mRNA at low concentrations”, under 0.1 µM and “fully restored exon 7 inclusion”.
